In brackets after ≈: the same amount, converted by molar mass. Several values for one entry are separate records, joined by “and”; a condition that tells them apart may be missing. Equal values may be shown once. Read-outs that look alike come from different tables or passages of the source.
What was measured:
[1] = system: mitochondria isolated from liver of tilapia (Sarotheridon mossambica); format: biochemical
[2] = system: mitochondria isolated from liver of tilapia (Sarotheridon mossambica); format: biochemical; remark: listed apart in the source
[3] = system: platelets in whole blood; assay: Platelet function testing with the Hemostasis Mechanism Analyzer (HMA): clumping, sticking, clotting in whole blood; format: cell-based, human; conditions: for activity at 3300 µg/mL / activity at 5000 µg/mL / activity at 6700 µg/mL / activity at 670 µg/mL / activity at 700 µg/mL / activity at 1300 µg/mL / activity at 2700 µg/mL / activity at 5300 µg/mL / activity at 10700 µg/mL: Homo sapiens, Platelet; for activity at 700 µg/mL: Dosage (mg/ml) 0.7; for activity at 1300 µg/mL: Dosage (mg/ml) 1.3; for activity at 2700 µg/mL: Dosage (mg/ml) 2.7; for activity at 5300 µg/mL: Dosage (mg/ml) 5.3; for activity at 10700 µg/mL: Dosage (mg/ml) 10.7
[4] = system: mitochondria; assay: Hydrogen peroxide levels on mitochondrial inhibition (unpublished results)
Description: Various experimental models of Parkinson's disease and other maladies have implicated mitochondrial dysfunction and excessive Reactive Oxygen Species (ROS) as possible contributors. Fortunately it is routine in the art to screen mitochondrial inhibitors or indeed any platelet inhibitor for hydrogen peroxide production in vitro, to select active agents that are suitable for long term administration as long as the production of hydrogen peroxide is not excessive.

[5] = in vitro whole blood assay, clumping, sticking, clotting
[6] = Dosage (mg/ml) 3.3, 0 dosage = 100, read-out: % clot time increase
[7] = Dosage (mg/ml) 3.3, 0 dosage = 100, read-out: % clump time increase
[8] = Dosage (mg/ml) 3.3, 0 dosage = 100, read-out: % stick time increase
[9] = Dosage (mg/ml) 5, 0 dosage = 100, read-out: % clot time increase
[10] = Dosage (mg/ml) 5, 0 dosage = 100, read-out: % clump time increase
[11] = Dosage (mg/ml) 5, 0 dosage = 100, read-out: % stick time increase
[12] = Dosage (mg/ml) 6.7, 0 dosage = 100, read-out: % clot time increase
[13] = read-out: % clump time increase
[14] = read-out: % stick time increase
[15] = Dosage (mg/ml) 6.7, 0 dosage = 100, read-out: % clump time increase
[16] = Dosage (mg/ml) 6.7, 0 dosage = 100, read-out: % stick time increase
[17] = 0 dosage = 100, read-out: % clot time increase
[18] = 0 dosage = 100, read-out: % clump time increase
[19] = 0 dosage = 100, read-out: % stick time increase

Question: With `Cc1cncs1` [Compound 94, 5-methylthiazole] as the compound, how does the “Reversible?” value [1] read?
Answer: Its value is “reversible and Yes”.

Question: And the “IC50 (mg/ml) mitochondria inhibition” value [2]?
Answer: The value was 23.5 mg/mL (≈ 237 mM).

Question: What does the source list for `Nc1nnn[nH]1` [Compound 34, 1H-tetrazol-5-amine]?
Answer: Reversible? [1]: reversible and Yes; IC50 (mg/ml) mitochondria inhibition [2]: 8.5 mg/mL (≈ 99.9 mM)

Question: tetrazole [Compound 93] was tested. Which “% clot time increase” value [3] did it give?
Answer: The value was 150% and 128% and 114%.

Question: And the “% clump time increase” value [3]?
Answer: The value was 211% and 194% and 116%.

Question: And the “% stick time increase” value [3]?
Answer: The value was 193% and 173% and 116%.

Question: What about the hydrogen peroxide levels [4] of the same compound?
Answer: The hydrogen peroxide levels was “elevated levels of hydrogen peroxide”.

Question: What about the “Reversible?” value ([1]; reversible if respiration rate after removing the inhibitor returned to greater than 75% of its value in the absence of inhibitor) of the same compound?
Answer: The value was “reversible and Yes”.

Question: What about the “IC50 (mg/ml) mitochondria inhibition” value [2] of the same compound?
Answer: Its value is 31.5 mg/mL.

Question: With `Cc1ncsc1CCOC(=O)C[P+](c1ccccc1)(c1ccccc1)c1ccccc1.[Br-]` [Compound 49, [2-[2-(4-methylthiazol-5-yl)ethoxy]-2-oxo-ethyl]-triphenyl-phosphonium bromide] as the compound, how does the “activity in the platelet assays (active agent or inactive)” value (shortened to “activity in the platelet assays”) [3] read?
Answer: Its value is “significantly reduced platelet activity or aggregation”.

Question: And the “Reversible?” value [1]?
Answer: The value was “irreversible and No”.

Question: And the “IC50 (mg/ml) mitochondria inhibition” value [2]?
Answer: Its value is 8.8 mg/mL.

Question: How did the “activity in the platelet assays” value [3, 5] turn out when `Brc1nn[nH]c1Br` [Compound 48, 4,5-dibromo-1H-triazole] was run?
Answer: The value was “met the criteria for active agents”.

Question: And the “Reversible?” value [1]?
Answer: The value was “reversible and Yes”.

Question: And the “IC50 (mg/ml) mitochondria inhibition” value [2]?
Answer: The value was 30 mg/mL (≈ 132 mM).

Question: What does the source list for `CSc1nnn[nH]1` [Compound 83, 5-methylsulfanyl-1H-tetrazole]?
Answer: activity at 3300 µg/mL [3, 6]: 127%; activity at 3300 µg/mL [3, 7]: 167%; activity at 3300 µg/mL [3, 8]: 157%; activity at 5000 µg/mL [3, 9]: 191%; activity at 5000 µg/mL [3, 10]: 584%; activity at 5000 µg/mL [3, 11]: 512%; activity at 6700 µg/mL [3, 12]: 297%; Reversible? [1]: reversible and Yes; IC50 (mg/ml) mitochondria inhibition [2]: 14.5 mg/mL (≈ 125 mM)

Question: Which activity at 3300 µg/mL [3, 6] does the source give for `O=C(O)Cc1nnn[nH]1` [Compound 82, 2-(1H-tetrazol-5-yl)acetic acid] here?
Answer: Its activity at 3300 µg/mL is 137%.

Question: And the activity at 3300 µg/mL [3, 7]?
Answer: Its activity at 3300 µg/mL is 240%.

Question: What about the activity at 3300 µg/mL [3, 8] of the same compound?
Answer: Its activity at 3300 µg/mL is 222%.

Question: And the activity at 5000 µg/mL [3, 9]?
Answer: The activity at 5000 µg/mL was 217%.

Question: And the activity at 5000 µg/mL [3, 10]?
Answer: The activity at 5000 µg/mL was 755%.

Question: And the activity at 5000 µg/mL [3, 11]?
Answer: The activity at 5000 µg/mL was 601%.

Question: And the “IC50 (mg/ml) mitochondria inhibition” value [2]?
Answer: The value was 11.8 mg/mL (≈ 92.1 mM).

Question: What does the source list for `NC(=O)c1nn[nH]n1` [Compound 71, 2H-tetrazole-5-carboxamide]?
Answer: activity at 3300 µg/mL ([3]; read-out: % clot time increase): 112%; activity at 5000 µg/mL ([3]; read-out: % clot time increase): 122%; activity at 6700 µg/mL ([3]; read-out: % clot time increase): 137%; activity at 3300 µg/mL [3, 13]: 126%; activity at 5000 µg/mL [3, 13]: 171%; activity at 6700 µg/mL [3, 13]: 236%; activity at 3300 µg/mL [3, 14]: 116%; activity at 5000 µg/mL [3, 14]: 153%; activity at 6700 µg/mL [3, 14]: 205%; IC50 (mg/ml) mitochondria inhibition [2]: 36.3 mg/mL (≈ 321 mM)

Question: Which results are given for `Clc1nnnn1-c1ccccc1` [Compound 54, 5-chloro-1-phenyl-tetrazole]?
Answer: activity in the platelet assays (active agent or inactive) [3, 5]: inactive; IC50 (mg/ml) mitochondria inhibition [2]: 12.5 mg/mL (≈ 69.2 mM)

Question: Which activity at 3300 µg/mL [3, 6] does the source give for `Cn1nnnc1S` [Compound 53, 1-methyltetrazole-5-thiol] here?
Answer: The activity at 3300 µg/mL was 117%.

Question: What about the activity at 3300 µg/mL [3, 7] of the same compound?
Answer: Its activity at 3300 µg/mL is 124%.

Question: And the activity at 3300 µg/mL [3, 8]?
Answer: Its activity at 3300 µg/mL is 117%.

Question: And the activity at 5000 µg/mL [3, 9]?
Answer: Its activity at 5000 µg/mL is 132%.

Question: What about the activity at 5000 µg/mL [3, 10] of the same compound?
Answer: Its activity at 5000 µg/mL is 185%.

Question: What about the activity at 5000 µg/mL [3, 11] of the same compound?
Answer: The activity at 5000 µg/mL was 176%.

Question: What about the activity at 6700 µg/mL [3, 12] of the same compound?
Answer: Its activity at 6700 µg/mL is 160%.

Question: And the activity at 6700 µg/mL [3, 15]?
Answer: Its activity at 6700 µg/mL is 292%.

Question: And the activity at 6700 µg/mL [3, 16]?
Answer: Its activity at 6700 µg/mL is 265%.

Question: What about the “IC50 (mg/ml) mitochondria inhibition” value [2] of the same compound?
Answer: The value was 27.5 mg/mL (≈ 237 mM).

Question: With Thiazole [Compound 47] as the compound, how does the “activity in the platelet assays” value [3] read?
Answer: The value was “inactive”.

Question: And the “Reversible?” value [1]?
Answer: Its value is “reversible and Yes”.

Question: And the “IC50 (mg/ml) mitochondria inhibition” value [2]?
Answer: Its value is 21.3 mg/mL.

Question: Which activity at 670 µg/mL ([3]; read-out: % clot time increase) does the source give for `Cc1nnn[nH]1` [Compound 76, 5-methyl-1H-tetrazole] here?
Answer: The activity at 670 µg/mL was 91%.

Question: And the activity at 3300 µg/mL ([3]; read-out: % clot time increase)?
Answer: Its activity at 3300 µg/mL is 120%.

Question: And the activity at 6700 µg/mL ([3]; read-out: % clot time increase)?
Answer: The activity at 6700 µg/mL was 301%.

Question: What about the activity at 670 µg/mL [3, 13] of the same compound?
Answer: Its activity at 670 µg/mL is 129%.

Question: And the activity at 3300 µg/mL [3, 13]?
Answer: The activity at 3300 µg/mL was 209%.

Question: What about the activity at 670 µg/mL [3, 14] of the same compound?
Answer: The activity at 670 µg/mL was 125%.

Question: And the activity at 3300 µg/mL [3, 14]?
Answer: The activity at 3300 µg/mL was 217%.

Question: What about the activity at 6700 µg/mL [3, 14] of the same compound?
Answer: Its activity at 6700 µg/mL is 983%.

Question: And the “IC50 (mg/ml) mitochondria inhibition” value [2]?
Answer: The value was 12.6 mg/mL (≈ 150 mM).

Question: What does the source list for `CCOC(=O)Cc1nnn[nH]1` [Compound 80, ethyl 2-(1H-tetrazol-5-yl)acetate]?
Answer: activity at 3300 µg/mL [3, 6]: 110%; activity at 3300 µg/mL [3, 7]: 107%; activity at 3300 µg/mL [3, 8]: 104%; activity at 5000 µg/mL [3, 9]: 121%; activity at 5000 µg/mL [3, 10]: 143%; activity at 5000 µg/mL [3, 11]: 141%; activity at 6700 µg/mL [3, 12]: 133%; activity at 6700 µg/mL [3, 15]: 207%; activity at 6700 µg/mL [3, 16]: 209%; IC50 (mg/ml) mitochondria inhibition [2]: 100 mg/mL (≈ 640 mM)

Question: Which activity at 700 µg/mL [3, 17] does the source give for `Cc1cscn1` [Compound 75, 4-methylthiazole] here?
Answer: The activity at 700 µg/mL was 103%.

Question: What about the activity at 700 µg/mL [3, 18] of the same compound?
Answer: Its activity at 700 µg/mL is 115%.

Question: What about the activity at 700 µg/mL [3, 19] of the same compound?
Answer: The activity at 700 µg/mL was 106%.

Question: What about the activity at 1300 µg/mL [3, 17] of the same compound?
Answer: Its activity at 1300 µg/mL is 106%.

Question: What about the activity at 1300 µg/mL [3, 18] of the same compound?
Answer: Its activity at 1300 µg/mL is 109%.

Question: And the activity at 1300 µg/mL [3, 19]?
Answer: Its activity at 1300 µg/mL is 102%.

Question: And the activity at 2700 µg/mL [3, 17]?
Answer: Its activity at 2700 µg/mL is 108%.

Question: And the activity at 2700 µg/mL [3, 18]?
Answer: Its activity at 2700 µg/mL is 126%.

Question: And the activity at 2700 µg/mL [3, 19]?
Answer: Its activity at 2700 µg/mL is 123%.

Question: What about the activity at 5300 µg/mL [3, 17] of the same compound?
Answer: Its activity at 5300 µg/mL is 114%.

Question: What about the activity at 5300 µg/mL [3, 18] of the same compound?
Answer: The activity at 5300 µg/mL was 136%.

Question: And the activity at 5300 µg/mL [3, 19]?
Answer: The activity at 5300 µg/mL was 132%.

Question: What about the activity at 10700 µg/mL [3, 17] of the same compound?
Answer: Its activity at 10700 µg/mL is 122%.

Question: And the activity at 10700 µg/mL [3, 18]?
Answer: The activity at 10700 µg/mL was 164%.

Question: And the activity at 10700 µg/mL [3, 19]?
Answer: The activity at 10700 µg/mL was 155%.

Question: What about the “IC50 (mg/ml) mitochondria inhibition” value [2] of the same compound?
Answer: Its value is 40.6 mg/mL (≈ 409 mM).

From patent US9918964B2, “Reducing platelet activation, aggregation and platelet-stimulated thrombosis or blood coagulation by reducing mitochondrial respiration” (priority 2010, dated 2018)
